Test results: ChEMBL document CHEMBL3400015, “Tertiary amides of Salinomycin: A new group of antibacterial agents against Bacillus anthracis and methicillin-resistant Staphylococcus epidermidis” (Bioorg Med Chem Lett, 2015)
≈ marks a conversion by molar mass, not a printed value. Calls of active or inactive are those of the source. No cut-off for these calls is given here.

Columns and labels:
Staphylococcus aureus [1] = assay: Antimicrobial activity against Staphylococcus aureus NCTC 4163 after 18 hrs by twofold serial broth dilution method; assay type: functional; details: NCTC 4163, 18 h
Staphylococcus aureus [2] = assay: Antimicrobial activity against Staphylococcus aureus ATCC 25923 after 18 hrs by twofold serial broth dilution method; assay type: functional; details: ATCC 25923, 18 h
[3] = tested on: Staphylococcus epidermidis; assay: Antimicrobial activity against Staphylococcus epidermidis ATCC 35984 after 18 hrs by twofold serial broth dilution method; assay type: functional; details: ATCC 35984, 18 h
[4] = tested on: Staphylococcus epidermidis; assay: Bactericidal activity against Staphylococcus epidermidis ATCC 35984 after 24 hrs; assay type: functional; details: ATCC 35984, 24 h, read-out: MBC99.9
Escherichia coli = assay: Bactericidal activity against Escherichia coli ATCC 10538 after 24 hrs; assay type: functional; details: ATCC 10538, 24 h, read-out: MBC99.9
[5] = tested on: Staphylococcus epidermidis; assay: Antimicrobial activity against methicillin-resistant Staphylococcus epidermidis isolate 403/10 after 18 hrs by twofold serial broth dilution method; assay type: functional; details: isolate 403/10, 18 h
[6] = tested on: Staphylococcus epidermidis; assay: Antimicrobial activity against methicillin-resistant Staphylococcus epidermidis isolate 405/10 after 18 hrs by twofold serial broth dilution method; assay type: functional; details: isolate 405/10, 18 h
[7] = tested on: Staphylococcus epidermidis; assay: Antimicrobial activity against methicillin-resistant Staphylococcus epidermidis isolate 424/10 after 18 hrs by twofold serial broth dilution method; assay type: functional; details: isolate 424/10, 18 h
[8] = tested on: Staphylococcus epidermidis; assay: Antimicrobial activity against methicillin-resistant Staphylococcus epidermidis isolate 458/11 after 18 hrs by twofold serial broth dilution method; assay type: functional; details: isolate 458/11, 18 h
[9] = tested on: Staphylococcus epidermidis; assay: Antimicrobial activity against methicillin-resistant Staphylococcus epidermidis isolate 460/11 after 18 hrs by twofold serial broth dilution method; assay type: functional; details: isolate 460/11, 18 h
[10] = tested on: Staphylococcus epidermidis; assay: Bactericidal activity against methicillin-resistant Staphylococcus epidermidis isolate 409/10 after 24 hrs; assay type: functional; details: isolate 409/10, 24 h, read-out: MBC99.9
[11] = tested on: Staphylococcus epidermidis; assay: Bactericidal activity against methicillin-resistant Staphylococcus epidermidis isolate 422/10 after 24 hrs; assay type: functional; details: isolate 422/10, 24 h, read-out: MBC99.9
[12] = tested on: Staphylococcus epidermidis; assay: Bactericidal activity against methicillin-resistant Staphylococcus epidermidis isolate 460/11 after 24 hrs; assay type: functional; details: isolate 460/11, 24 h, read-out: MBC99.9
[13] = tested on: Staphylococcus epidermidis; assay: Bactericidal activity against methicillin-resistant Staphylococcus epidermidis isolate 470/11 after 24 hrs; assay type: functional; details: isolate 470/11, 24 h, read-out: MBC99.9
Bacillus subtilis [14] = assay: Genotoxicity in rec-positive Bacillus subtilis H17 at 2 ug/9 mm disc after 24 hrs by disc diffusion method; assay type: toxicity, organism-based
Bacillus subtilis [15] = assay: Genotoxicity in rec-negative Bacillus subtilis M45 at 2 ug/9 mm disc after 24 hrs by disc diffusion method; assay type: toxicity, organism-based
[16] = tested on: Staphylococcus epidermidis; assay: Ratio of ciprofloxacin MIC to compound MIC for methicillin-resistant Staphylococcus epidermidis clinical isolate after 18 hrs by twofold serial broth dilution method; assay type: functional
[17] = tested on: Staphylococcus epidermidis; assay: Inhibition of Staphylococcus epidermidis ATCC 35984 biofilm formation at 1 to 32 ug/ml after 24 hrs by MTT assay; assay type: functional, organism-based
[18] = tested on: Staphylococcus epidermidis; assay: Inhibition of Staphylococcus epidermidis ATCC 12228 biofilm formation at 1 to 32 ug/ml after 24 hrs by MTT assay; assay type: functional, organism-based
[19] = tested on: Staphylococcus epidermidis; assay: Inhibition of Staphylococcus epidermidis isolate 407/10 biofilm formation at 1 to 32 ug/ml after 24 hrs by MTT assay; assay type: functional, organism-based
[20] = tested on: Staphylococcus epidermidis; assay: Inhibition of Staphylococcus epidermidis isolate 409/10 biofilm formation at 1 to 32 ug/ml after 24 hrs by MTT assay; assay type: functional, organism-based
[21] = tested on: Staphylococcus epidermidis; assay: Inhibition of Staphylococcus epidermidis isolate 461/11 biofilm formation at 1 to 32 ug/ml after 24 hrs by MTT assay; assay type: functional, organism-based
[22] = tested on: Staphylococcus epidermidis; assay: Inhibition of Staphylococcus epidermidis isolate 469/11 biofilm formation at 1 to 32 ug/ml after 24 hrs by MTT assay; assay type: functional, organism-based

SMILES | MIC (Staphylococcus aureus [1]) [µg/mL] | MIC (Staphylococcus aureus [2]) [µg/mL] | MIC [3] [µg/mL] | MBC [4] [µg/mL] | MBC (Escherichia coli) [µg/mL] | MIC [5] [µg/mL] | MIC [6] [µg/mL] | MIC [7] [µg/mL] | MIC [8] [µg/mL] | MIC [9] [µg/mL] | MBC [10] [µg/mL] | MBC [11] [µg/mL] | MBC [12] [µg/mL] | MBC [13] [µg/mL] | diameter of the inhibition zone (DIZ) (Bacillus subtilis [14]) [mm] | diameter of the inhibition zone (DIZ) (Bacillus subtilis [15]) [mm] | further results
CC[C@@H](C(=O)[C@@H](C)[C@@H](O)[C@H](C)[C@@H]1O[C@@H]([C@@H](CC)C(=O)N(CCO)CCO)CC[C@@H]1C)[C@H]1O[C@]2(C=C[C@@H](O)[C@]3(CC[C@@](C)([C@H]4CC[C@](O)(CC)[C@H](C)O4)O3)O2)[C@H](C)C[C@@H]1C | 4 (≈ 4.77 µM) | 4 (≈ 4.77 µM) | 4 (≈ 4.77 µM) | 128 (≈ 153 µM) | > 256 | 4 (≈ 4.77 µM) | 2 (≈ 2.39 µM) | 4 (≈ 4.77 µM) | 4 (≈ 4.77 µM) | 4 (≈ 4.77 µM) | 256 (≈ 305 µM) | 128 (≈ 153 µM) | 256 (≈ 305 µM) | 256 (≈ 305 µM) | 28 | 29 | Ratio [16]: 40
CCCCCCCCN(CCCCCCCC)C(=O)[C@H](CC)[C@H]1CC[C@H](C)[C@H]([C@@H](C)[C@H](O)[C@H](C)C(=O)[C@H](CC)[C@H]2O[C@]3(C=C[C@@H](O)[C@]4(CC[C@@](C)([C@H]5CC[C@](O)(CC)[C@H](C)O5)O4)O3)[C@H](C)C[C@@H]2C)O1 | 256 (≈ 263 µM) | 128 (≈ 131 µM) | 128 (≈ 131 µM) | > 256 | > 256 | 256 (≈ 263 µM) | > 256 | > 256 | 256 (≈ 263 µM) | 256 (≈ 263 µM) | > 256 | > 256 | > 256 | > 256 | – | – | –
CC[C@@H](C(=O)[C@@H](C)[C@@H](O)[C@H](C)[C@@H]1O[C@@H]([C@@H](CC)C(=O)N(CCOC)CCOC)CC[C@@H]1C)[C@H]1O[C@]2(C=C[C@@H](O)[C@]3(CC[C@@](C)([C@H]4CC[C@](O)(CC)[C@H](C)O4)O3)O2)[C@H](C)C[C@@H]1C | 64 (≈ 73.9 µM) | 64 (≈ 73.9 µM) | 128 (≈ 148 µM) | > 256 | > 256 | 64 (≈ 73.9 µM) | 256 (≈ 296 µM) | 256 (≈ 296 µM) | 64 (≈ 73.9 µM) | 128 (≈ 148 µM) | > 256 | > 256 | > 256 | > 256 | 13 | 14 | –
CC[C@@H](C(=O)[C@@H](C)[C@@H](O)[C@H](C)[C@@H]1O[C@@H]([C@@H](CC)C(=O)N2CCOCC2)CC[C@@H]1C)[C@H]1O[C@]2(C=C[C@@H](O)[C@]3(CC[C@@](C)([C@H]4CC[C@](O)(CC)[C@H](C)O4)O3)O2)[C@H](C)C[C@@H]1C | 256 (≈ 312 µM) | 128 (≈ 156 µM) | 128 (≈ 156 µM) | > 256 | > 256 | 256 (≈ 312 µM) | 256 (≈ 312 µM) | 256 (≈ 312 µM) | 256 (≈ 312 µM) | 256 (≈ 312 µM) | > 256 | > 256 | > 256 | > 256 | – | – | –
O=C(O)c1cn(C2CC2)c2cc(N3CCNCC3)c(F)cc2c1=O [CIPROFLOXACIN] | 0.25 (≈ 0.754 µM) | 0.5 (≈ 1.51 µM) | 0.125 (≈ 0.377 µM) | 0.5 (≈ 1.51 µM) | 0.0016 (≈ 0.00483 µM) | 8 (≈ 24.1 µM) | 2 (≈ 6.04 µM) | 8 (≈ 24.1 µM) | 32 (≈ 96.6 µM) | 0.125 (≈ 0.377 µM) | 64 (≈ 193 µM) | 64 (≈ 193 µM) | 0.5 (≈ 1.51 µM) | 0.5 (≈ 1.51 µM) | – | – | inhibition [17]: Active; inhibition [18]: Active; inhibition [19]: Active; inhibition [20]: Active; inhibition [21]: Active; inhibition [22]: Active
